The target in this test is T1, PGE2 receptor EP2 subtype (Mus musculus, UniProt Q62053).
T1 construct: gene Ptger2; endogenous receptor in Neuro-2a cells
Nature of the test: TR-FRET cAMP assay in Neuro-2a cells (agonist dose-response). It is filed as cell-based.

What is called EC50 is the concentration that produces a half-maximal response. A lower EC50 goes with a more potent agent.

T1 sequence (Q62053 whole entry): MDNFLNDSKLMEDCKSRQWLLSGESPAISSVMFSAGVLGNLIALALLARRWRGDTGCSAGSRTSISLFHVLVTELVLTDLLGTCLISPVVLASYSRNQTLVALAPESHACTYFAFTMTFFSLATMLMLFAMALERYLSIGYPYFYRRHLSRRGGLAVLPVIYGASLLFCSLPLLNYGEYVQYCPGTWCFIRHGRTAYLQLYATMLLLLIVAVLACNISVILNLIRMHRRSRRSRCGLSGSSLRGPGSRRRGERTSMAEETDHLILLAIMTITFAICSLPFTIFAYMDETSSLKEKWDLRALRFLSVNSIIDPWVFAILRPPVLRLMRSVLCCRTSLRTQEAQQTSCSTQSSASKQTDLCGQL

Take `CCCC1([C@H](O)C/C=C/[C@H]2[C@H](O)CC(=O)[C@@H]2CCCCCCC(=O)OC)CCC1` [butaprost]: the response was half-maximal at 80 nM (EC50).

Values taken from PMC5573328, “Cyclooxygenase-2 contributes to oxidopamine-mediated neuronal inflammation and injury via the prostaglandin E2 receptor EP2 subtype” (Scientific Reports, 2017).
